system: LS513 KRAS G12V (colon); assay: MTT assay; assay type: cell-based; settings: Homo sapiens, LS-513, 72 h, Table 4; 3 days incubation; read-out: MTT assay IC50 KRAS mutant (Colon) LS513 KRAS G12V
Method in brief: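 Cells were seeded at line-dependent density and stabilised overnight at 37 °C, then exposed to compounds for 3 days at 37 °C. MTT was then added for 2 h and the formazan dissolved in DMSO.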

Structure (SMILES)	IC50
O=C(Nc1cc(Nc2ncccc2-c2ncnc3[nH]ccc23)ccc1F)c1cc(F)cc(C(F)(F)F)c1 [Example 88, 3-Fluoro-N-2-Fluoro-5-[3-(7H-Pyrrolo[2,3-d]Pyrimidin-4-Yl)Pyridin-2-Ylamino]Phenyl-5-Trifluoromethyl Benzamide]	609 nM
CC(C)(C#N)c1cccc(C(=O)Nc2cc(Nc3ncccc3-c3ncnc4[nH]ccc34)ccc2F)c1 [Example 91, 3-(2-Cyanopropan-2-Yl)-N-2-Fluoro-5-[3-(7H-Pyrrolo[2,3-d]Pyrimidin-4-Yl)Pyridin-2-Ylamino]Phenyl Benzamide]	1120 nM
CC(C)(C#N)c1cc(F)cc(C(=O)Nc2cc(Nc3ncccc3-c3ncnc4[nH]ccc34)ccc2F)c1 [Example 92, 3-(2-Cyanopropan-2-Yl)-5-Fluoro-N-2-Fluoro-5-[3-(7H-Pyrrolo[2,3-d]Pyrimidin-4-Yl)Pyridin-2-Ylamino]Phenyl Benzamide]	1510 nM
O=C(Nc1cc(Nc2ncccc2-c2ncnc3[nH]cnc23)ccc1F)c1ccc(F)c(C(F)(F)F)c1 [Example 111, N-5-[(3-(9H-Purin-6-Yl)Pyridin-2-Yl)Amino]-2-Fluorophenyl-4-Fluoro-3-(Trifluoromethyl)Benzamide]	300 nM
CC(C)(C#N)c1cccc(NC(=O)c2cc(Nc3ncccc3-c3ncnc4[nH]cnc34)ccc2F)c1 [Example 112, 5-[3-(9H-Purin-6-Yl)Amino]-N-[3-(2-Cyanopropan-2-Yl)Phenyl]-2-Fluorobenzamide]	> 10000 nM
O=C(Nc1cc(Nc2ncccc2-c2ncnc3[nH]cnc23)ccc1F)c1cccc(F)c1 [Example 113, N-5-[(3-(9H-Purin-6-Yl)Pyridin-2-Yl)Amino]-2-Fluorophenyl-3-Fluorobenzamide]	1480 nM
CC(C)(C#N)c1cc(C(=O)Nc2cc(Nc3ncccc3-c3ncnc4[nH]cnc34)ccc2F)ccc1F [Example 116, N-5-[(3-(9H-purin-6-yl)pyridin-2-yl)amino]-2-fluoropheny-3-(2-cyanopropan-2-yl)-4-fluorobenzamide]	587 nM
CC(C)(C#N)c1cc(C(=O)Nc2cc(Nc3ncccc3-c3ncnc4[nH]cnc34)ccc2F)ccc1Cl [Example 117, N-5-[(3-(9H-purin-6-yl)pyridin-2-yl)amino]-2-fluorophenyl-4-chloro-3-(2-cyanopropan-2-yl)benzamide]	868 nM
O=C(Nc1cccc(C(F)(F)F)c1)Nc1cc(Nc2ncccc2-c2ncnc3[nH]cnc23)ccc1F [Example 118, 1-5-[(3-(9H-purin-6-yl)pyridin-2-yl)amino]-2-fluorophenyl-3-[3-(trifluoromethyl)phenyl]urea]	153 nM
CC(C)(C#N)c1cccc(C(=O)Nc2cc(Nc3ncccc3-c3ncnc4[nH]cnc34)ccc2F)n1 [Example 119, N-5-[(3-(9H-purin-6-yl)pyridin-2-yl)amino]-2-fluorophenyl-6-(2-cyanopropan-2-yl)picolinamide]	> 10000 nM
O=C(Nc1cc(Nc2ncccc2-c2ncnc3[nH]cnc23)ccc1F)c1cc(C(F)(F)F)ccc1F [Example 120, N-5-[(3-(9H-purin-6-yl)pyridin-2-yl)amino]-2-fluorophenyl-2-fluoro-5-(trifluoromethyl)benzamide]	3380 nM
O=C(Nc1cc(Nc2ncccc2-c2ncnc3[nH]cnc23)ccc1F)c1cccc(C(F)(F)F)c1F [Example 121, N-5-[(3-(9H-purin-6-yl)pyridin-2-yl)amino]-2-fluorophenyl-2-fluoro-3-(trifluoromethyl)benzamide]	304 nM
O=C(Nc1cccc(Nc2ncccc2-c2ncnc3[nH]cnc23)c1F)c1cccc(C(F)(F)F)c1 [Example 122, N-3-[(3-(9H-purin-6-yl)pyridin-2-yl)amino]-2-fluorophenyl-3-(trifluoromethyl)benzamide]	6580 nM
O=C(Nc1ccc(C(F)(F)F)cc1)Nc1cc(Nc2ncccc2-c2ncnc3[nH]cnc23)ccc1F [Example 123, 1-5-[(3-(9H-purin-6-yl)pyridin-2-yl)amino]-2-fluorophenyl-3-[4-(trifluoromethyl)phenyl]urea]	392 nM
O=C(Nc1cc(Nc2ncccc2-c2ncnc3[nH]cnc23)ccc1Cl)c1cc(C(F)(F)F)cc(C(F)(F)F)c1 [Example 124, N-5-[(3-(9H-purin-6-yl)pyridin-2-yl)amino]-2-chlorophenyl-3,5-bis(trifluoromethyl)benzamide]	888 nM
CSc1cccc(C(=O)Nc2cc(Nc3ncccc3-c3ncnc4[nH]cnc34)ccc2F)c1 [Example 125, N-5-[(3-(9H-purin-6-yl)pyridin-2-yl)amino]-2-fluorophenyl-3-(methylthio)benzamide]	767 nM
CS(=O)(=O)c1cccc(C(=O)Nc2cc(Nc3ncccc3-c3ncnc4[nH]cnc34)ccc2F)c1 [Example 126, N-5-[(3-(9H-purin-6-yl)pyridin-2-yl)amino]-2-fluorophenyl-3-(methylsulfonyl)benzamide]	1110 nM
CC(C)(C#N)c1cc(F)cc(C(=O)Nc2cc(Nc3ncccc3-c3ncnc4[nH]cnc34)ccc2Cl)c1 [Example 127, N-5-[(3-(9H-purin-6-yl)pyridin-2-yl)amino]-2-chlorophenyl-3-(2-cyanopropan-2-yl)-5-fluorobenzamide]	591 nM

Structure (SMILES)	IC50
O=C(Nc1cc(Nc2ncccc2-c2ncnc3[nH]cnc23)ccc1F)c1ccc(C(F)(F)F)cc1C(F)(F)F [Example 128, N-5-[(3-(9H-purin-6-yl)pyridin-2-yl)amino]-2-fluorophenyl-2,4-bis(trifluoromethyl)benzamide]	1200 nM
O=C(Nc1cc(Nc2ncccc2-c2ncnc3[nH]cnc23)ccc1F)c1ccc(C(F)(F)F)c(C(F)(F)F)c1 [Example 129, N-5-[(3-(9H-purin-6-yl)pyridin-2-yl)amino]-2-fluorophenyl-3,4-bis(trifluoromethyl)benzamide]	652 nM
O=C(Nc1cc(Nc2ncccc2-c2ncnc3[nH]cnc23)ccc1F)c1cc(C(F)(F)F)ccc1C(F)(F)F [Example 130, N-5-[(3-(9H-purin-6-yl)pyridin-2-yl)amino]-2-fluorophenyl-2,5-bis(trifluoromethyl)benzamide]	1050 nM
O=C(Nc1cc(Nc2ncccc2-c2ncnc3[nH]cnc23)ccc1F)c1cccc(OC(F)(F)F)c1 [Example 131, N-5-[(3-(9H-purin-6-yl)pyridin-2-yl)amino]-2-fluorophenyl-3-(trifluoromethoxy)benzamide]	102 nM
COc1cc(OC)cc(C(=O)Nc2cc(Nc3ncccc3-c3ncnc4[nH]cnc34)ccc2F)c1 [Example 132, N-5-[(3-(9H-purin-6-yl)pyridin-2-yl)amino]-2-fluorophenyl-3,5-dimethoxybenzamide]	585 nM
O=C(Nc1cc(Nc2ncccc2-c2ncnc3[nH]cnc23)ccc1F)c1ccc(C(F)(F)F)c(F)c1 [Example 133, N-5-[(3-(9H-purin-6-yl)pyridin-2-yl)amino]-2-fluorophenyl-3-fluoro-4-(trifluoromethyl)benzamide]	5600 nM
COc1ccc(C(=O)Nc2cc(Nc3ncccc3-c3ncnc4[nH]cnc34)ccc2F)cc1C(F)(F)F [Example 134, N-5-[(3-(9H-purin-6-yl)pyridin-2-yl)amino]-2-fluorophenyl-4-methoxy-3-(trifluoromethyl)benzamide]	72 nM
O=C(Nc1cc(Nc2ncccc2-c2ncnc3[nH]cnc23)ccc1F)c1cccc(C(F)(F)F)n1 [Example 136, N-5-[(3-(9H-purin-6-yl)pyridin-2-yl)amino]-2-fluorophenyl-6-(trifluoromethyl) picolinamide]	2300 nM
Cc1cc(C(=O)Nc2cc(Nc3ncccc3-c3ncnc4[nH]cnc34)ccc2F)ccc1F [Example 137, N-5-[(3-(9H-purin-6-yl)pyridin-2-yl)amino]-2-fluorophenyl-4-fluoro-3-methylbenzamide]	1060 nM
Cc1ccc(C(=O)Nc2cc(Nc3ncccc3-c3ncnc4[nH]cnc34)ccc2F)cc1C(F)(F)F [Example 138, N-5-[(3-(9H-purin-6-yl)pyridin-2-yl)amino]-2-fluorophenyl-4-methyl-3-(trifluoromethyl)benzamide]	403 nM
COc1cc(OC(F)(F)F)cc(C(=O)Nc2cc(Nc3ncccc3-c3ncnc4[nH]cnc34)ccc2F)c1 [Example 140, N-5-[(3-(9H-purin-6-yl)pyridin-2-yl)amino]-2-fluorophenyl-3-methoxy-5-(trifluoromethoxy)benzamide]	294 nM
O=C(Nc1cc(Nc2ncccc2-c2ncnc3[nH]cnc23)ccc1F)c1cccc(C2CC2)c1 [Example 141, N-5-[(3-(9H-purin-6-yl)pyridin-2-yl)amino]-2-fluorophenyl-3-cyclopropylbenzamide]	445 nM
O=C(Nc1cc(Nc2ncccc2-c2ncnc3[nH]cnc23)ccc1F)c1cc(Cl)cc(OC(F)(F)F)c1 [Example 142, N-5-[(3-(9H-purin-6-yl)pyridin-2-yl)amino]-2-fluorophenyl-3-chloro-5-(trifluoromethoxy)benzamide]	128 nM
O=C(Nc1cc(Nc2ncccc2-c2ncnc3[nH]cnc23)ccc1F)c1ccc(F)c(OC(F)(F)F)c1 [Example 143, N-5-[(3-(9H-purin-6-yl)pyridin-2-yl)amino]-2-fluorophenyl-4-fluoro-3-(trifluoromethoxy)benzamide]	559 nM
O=C(Nc1cc(Nc2ncccc2-c2ncnc3[nH]cnc23)ccc1F)c1cc(C(F)(F)F)ccn1 [Example 144, N-5-[(3-(9H-purin-6-yl)pyridin-2-yl)amino]-2-fluorophenyl-4-(trifluoromethyl) picolinamide]	444 nM
Cc1cccc(C(=O)Nc2cc(Nc3ncccc3-c3ncnc4[nH]cnc34)ccc2F)c1 [Example 145, N-5-[(3-(9H-purin-6-yl)pyridin-2-yl)amino]-2-fluorophenyl-3-methylbenzamide]	1030 nM
O=C(Nc1cc(Nc2ncccc2-c2ncnc3[nH]cnc23)ccc1F)c1cccc(Cl)c1 [Example 146, N-5-[(3-(9H-purin-6-yl)pyridin-2-yl)amino]-2-fluorophenyl-3-chlorobenzamide]	1700 nM
O=C(Nc1cc(Nc2ncccc2-c2ncnc3[nH]cnc23)ccc1F)c1ccc(Cl)c(OC(F)(F)F)c1 [Example 147, N-5-[(3-(9H-purin-6-yl)pyridin-2-yl)amino]-2-fluorophenyl-4-chloro-3-(trifluoromethoxy)benzamide]	502 nM
